{
  "source": "patent US20040028749A1",
  "about": "“Treating inflammation and associated complications” (priority 2000, published 2004)",
  "target": "T1, EPO (Sus scrofa, UniProt P80550)",
  "T1 construct": "from tissue; host or cells: porcine whole blood (leukocytes/eosinophils)",
  "T1 sequence (P80550 143-704)": "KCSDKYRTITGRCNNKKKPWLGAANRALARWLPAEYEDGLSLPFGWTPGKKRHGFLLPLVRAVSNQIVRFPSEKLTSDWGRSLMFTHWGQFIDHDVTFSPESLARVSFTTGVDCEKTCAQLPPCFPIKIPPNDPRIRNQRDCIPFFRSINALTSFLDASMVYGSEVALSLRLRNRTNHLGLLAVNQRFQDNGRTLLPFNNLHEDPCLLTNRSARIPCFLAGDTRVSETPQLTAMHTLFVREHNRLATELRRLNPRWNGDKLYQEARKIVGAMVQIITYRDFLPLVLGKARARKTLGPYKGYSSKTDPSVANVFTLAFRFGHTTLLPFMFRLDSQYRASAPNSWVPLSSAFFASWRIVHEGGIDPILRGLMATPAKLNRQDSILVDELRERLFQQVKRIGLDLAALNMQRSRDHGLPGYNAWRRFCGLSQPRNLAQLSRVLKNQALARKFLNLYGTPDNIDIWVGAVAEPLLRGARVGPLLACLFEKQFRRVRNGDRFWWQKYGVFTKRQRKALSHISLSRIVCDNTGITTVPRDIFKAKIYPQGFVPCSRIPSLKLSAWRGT",
  "assay": "Stopped-flow kinetics of NO with EPO compounds I and II",
  "assay_type": "biochemical",
  "details": "10 μM H2O2",
  "protocol": "[…] EPO was isolated from porcine whole blood obtained fresh at the slaughterhouse as described by Jorg et al. (1982) Biochim Biophys Acta 701:185-191. EPO was assayed by guaiacol oxidation (see Klebanoff et al. (1984) Methods Enzymol. 105:399-403). […] The concentration of the MPO dimer was calculated as half the indicated concentration of heme-like chromophore. Bovine LPO was obtained from Worthington Biochemistry Corporation (Lakewood, N.J.) and used without further purification.\nStopped-flow spectroscopy was used to investigate how NO interacts with intermediate forms of EPO and LPO during steady-state catalysis. […] The time courses for the formation and decay of compound II of both EPO and LPO in the absence of NO were examined by monitoring the absorbance change at 445 nm for EPO and at 430 nm for LPO. For both enzymes, the changes in absorbance that took place in the first 2 seconds of the reactions are shown and are attributed to the buildup of compound II. […] The subsequent decreases in absorbance at 455 and 430 nm observed for both enzymes were also fit to a single-exponential function with a rate constant of 0.005 s^−1 for EPO and 0.0005 s^−1 for LPO. […]\nThe addition of NO to reaction mixtures of EPO or LPO results in dramatic effects on the rates of compound II buildup, duration, and decay, as assessed by stopped-flow spectroscopy. […]",
  "data": [
    {"compound": "[N]=O", "note": "[NO, nitric oxide]", "values": [
      {"measurement": "enhancement of rate of EPO compound II accumulation", "result": "~25", "unit": "fold"}
    ]}
  ]
}
